Assay results published in the NIST ThermoML archive (doi:10.1021/je700021f).

Assay: xn = mol fraction of the nth substance listed
Conditions: 101 kPa, Liquid, Pulse-echo method

CCCCCCCCCCl [1-chlorononane] + CCCCCCCCC
speed of sound [m/s]
Conditions	x2 = 0	x2 = 0.1	x2 = 0.3	x2 = 0.5	x2 = 0.7	x2 = 0.8	x2 = 0.85	x2 = 0.9
293.15 K	1297.2	1283.1	1268.5	1254.2	1243.5	1232.8	1231.8	1222.6
298.15 K	1278.2	1264.2	1249	1235	1223.5	1212.9	1211.9	1203.3
303.15 K	1259.5	1245.4	1229.8	1215.9	1203.6	1193	1192.1	1184.1
308.15 K	1240.9	1226.7	1210.6	1197	1183.9	1173.3	1172.4	1165
313.15 K	1222.5	1208.1	1191.7	1178.1	1164.3	1153.7	1152.8	1145.9
318.15 K	1204.3	1189.7	1172.8	1159.3	1144.9	1134.2	1133.4	1126.9
323.15 K	1186.3	1171.4	1154.1	1140.6	1125.6	1114.9	1114	1107.9
328.15 K	1168.4	1153.2	1135.6	1122	1106.5	1095.6	1094.7	1088.9
333.15 K	1150.7	1135.2	1117.1	1103.6	1087.5	1076.5	1075.5	1070
338.15 K	1133.2	1117.2	1098.9	1085.2	1068.7	1057.5	1056.4	1051.2
343.15 K	1115.9	1099.4	1080.7	1066.9	1050	1038.6	1037.4	1032.4
348.15 K	1098.8	1081.8	1062.7	1048.7	1031.5	1019.8	1018.5	1013.7
353.15 K	1081.9	1064.2	1044.9	1030.6	1013.1	1001.1	999.7	995
358.15 K	1065.1	1046.8	1027.2	1012.6	–	–	–	–
